We go through three molecules from patent publication US7989495B2, “Compositions and methods for inhibiting NF-κB mediated tumorigenicity and adhesion dependent survival of cancer cells” (University of Utah Research Foundation, priority 2002, dated 2011).

“Also recorded” adds a separate entry of the source. Peptide text beside a SMILES is read from it. * marks the point of attachment. Cbz = O=C(OCc1ccccc1)*

Type in all cases: cell-based
Assay [1] relates to transiently suspended HT-29 cells. In words: Apoptosis (annexin V) of transiently suspended cells allowed to readhere. To be noted: HT-29; various concentrations; 4 h; compared with BAY 11-7085. The protocol:
HT-29 cells that were either transiently suspended with trypsin-EDTA or adherent for three days, were treated at time zero with DMSO or 10-100 μM BAY 11-7085. The percent of apoptotic cells was determined using the annexin V flow cytometry assay and graphed versus the dose of BAY 11-7085. […] The cells were fixed and immunostained with an NF-κB p65 subunit monoclonal antibody.
The transiently suspended cells were lysed and allowed to bind to DNA oligonucleotides, containing the NF-κB consensus binding site, that were immobilized to 96-well plates. NF-κB protein bound to the oligonucleotides was detected by an antibody to the p65 subunit that only recognized p65 that is bound to DNA. The positive control was HeLa cells that were stimulated with TNFα A control was performed using excess free NF-κB oligonucleotides (Competitor). […] NF-κB binding activity was determined by the TransAM assay as in FIG. 5A. […] The data shown represent typical results of three separate experiments. […] An immunoblot for COX-2 was performed.
The percentage of apoptotic cells was determined using the annexin V assay. The data points represent the averages of three experiments; bars, ±SE. E. DLD-1 and F. HT-29 cells were transduced with an adenovirus containing the IκB super-repressor construct. After 3 days, the cells were transiently suspended and allowed to readhere in the presence of subapoptotic concentrations of BAY 11-7085 or DMSO (vehicle) for 8 h. The data are expressed as fractions of cells surviving compared with the controls (no adenovirus) and were quantitatively determined by staining the remaining adherent cells with crystal violet.
(§1) Single cell suspensions were plated at 100,000 cells per well in 24-well plates in media containing DMSO, BAY 11-7082, BAY 11-7085, or MG-132 for 8-24 hours in an incubator. Alternatively, DMSO, BAY 11-7082, BAY 11-7085, or MG-132 were added to cells that were confluent and adherent for several days. The nonadherent cells were aspirated off with the media and spun for 3 minutes at 2,000 rpm in 15 ml polypropylene tubes. The adherent cells were washed twice with PBS, dispersed in trypsin, and spun down for 3 minutes at 2,000 rpm in 15 ml polypropylene tubes. The nonadherent and adherent cells were resuspended in 1× binding buffer (10 mM HEPES/NaOH, pH 7.4, 140 mM NaCl, and 2.5 mM CaCl2) to a final concentration of 10^6 cells/ml. 100 μl of the cell solution were transferred to a 5 ml culture tube and incubated with 5 μl of annexin V-FITC-conjugated monoclonal antibody (Pharmingen) and 10 μl of propidium iodide (from a 50 μg/ml stock solution made in PBS) in the dark at 25° C. for 15 minutes. 400 μl of binding buffer was added to each tube and the cells were analyzed by flow cytometry immediately. The percent of apoptosis was determined as the percent of annexin V-positive, propidium iodide-negative cells of the total cells counted.
Various concentrations of BAY 11-7085 were added to HT-29 cells that were transiently suspended in trypsin-PBS for approximately 15 minutes before replating. The transiently suspended cells were quickly allowed to readhere in order to prevent anoikis. Alternatively, BAY 11-7085 was added to adherent HT-29 cell monolayers.

The subject of assay [2] is cleaved PARP in HCT-116 cells. In words: Immunoblot for cleaved PARP. The settings on record: 20 μM, 24 hours. On the procedure: The data points represent the average percent of annexin V-positive, propidium iodide-negative cells (of the total cells counted) from triplicate experiments. The error bars represent the standard error of the means. […] The results shown are a graphic representation of individual flow cytometry results expressed as the percentage of cells that were annexin V-positive of those that excluded propidium iodide. […] An immunoblot of the lysates for cleaved PARP was performed. Each lane represents equal total protein concentrations. […] The cells were allowed to adhere to plastic dishes for 1 hour after which they were washed gently in PBS and stained with crystal violet. The crystal violet stained cells were solubilized in deoxycholate and the absorbance detected in a spectrophotometer at 590 nm. The adherent cells were expressed as a fraction of the controls Each data point represents the average of triplicate experiments and the error bars the standard errors of the means. […]
(§2) For immunodetection, the blocked blots were probed with primary antibody for 2 hours at 4° C. on a rocker. […] Alkaline phosphatase was detected by a colorimetric reaction using a BCIP (5-Bromo-4-Chloro-3-Indolyl phosphate)/NBT (Nitroblue tetrazolium) kit (Zymed).
(Immunoblotting shows a protein as a band on a membrane.)

The test system of another assay is adherent HT-29 cells. Put plainly: Apoptosis assay (annexin V-FITC / propidium iodide flow cytometry), adherent cells. On the procedure: The data points represent the average percent of annexin V-positive, propidium iodide-negative cells (of the total cells counted) from triplicate experiments. The error bars represent the standard error of the means. […] The results shown are a graphic representation of individual flow cytometry results expressed as the percentage of cells that were annexin V-positive of those that excluded propidium iodide. […] An immunoblot of the lysates for cleaved PARP was performed. Each lane represents equal total protein concentrations. […] The cells were allowed to adhere to plastic dishes for 1 hour after which they were washed gently in PBS and stained with crystal violet. The crystal violet stained cells were solubilized in deoxycholate and the absorbance detected in a spectrophotometer at 590 nm. The adherent cells were expressed as a fraction of the controls Each data point represents the average of triplicate experiments and the error bars the standard errors of the means.
as §1

Assay [3] deals with cleaved PARP in HT-29 cells. In words: Immunoblot for cleaved PARP. The settings on record: 20 μM, 8 h. The protocol:
The cells were washed twice in ice cold PBS and then lysed in 4° C. lysis buffer (50 mM HEPES, 150 mM NaCl, 1.5 mM MgCl2, 1 mM EGTA, 100 mM NaF, 10 mM Na2PO4, 1 mM Na3VO4, 10% glycerol, 1% Triton X-100, and 1 μg/ml each of aprotinin, leupeptin, chymostatin, pepstatin) and clarified at 12,000 rpm at 4° C. for 15 minutes. The lysates were normalized for total protein concentration. Aliquots of the lysates were then mixed 1:1 in sample buffer (125 mM Tris-HCl (pH 6.8), 20% glycerol. 4% sodium dodecyl sulfate, 2% beta-mercaptoethanol, 10 μg/ml bromophenol blue) and boiled for 3 minutes. The samples were loaded onto SDS-PAGE gels (7.5 or 10% acrylamide). […]
as §2
It was confirmed in HT-29 cells that were treated with increasing concentrations of BAY 11-7085 for 24 h. After separating the HT-29 cells that remained adherent and those that became nonadherent after BAY 11-7085 treatment, the percentage of apoptotic cells was determined for each group. […]

The subject of assay [4] is HCT-116 colon cancer cell line. In words: Cell proliferation assay (crystal violet, 590 nm). The settings on record: 10 and 50 μg/ml, after several days of treatment. On the procedure: (§3) DLD-1, HCT-116, and HT-29 colon cancer cell lines were obtained from the ATCC collection and were cultured in Dulbecco's Modification of Eagle's Medium supplemented with 10% fetal bovine serum, glutamine, penicillin, and streptomycin. 293 cells stably transfected with COX-2 (293-COX-2) under the control of a ponasterone sensitive promoter were cultured in Dulbecco's Modification of Eagle's Medium supplemented with 10% fetal bovine serum, 400 μg/ml of zeocin, 400 μg/ml of G418, glutamine, penicillin, and streptomycin. For induction of COX-2 protein expression, 293-COX-2 cells were cultured for 48 hours in media supplemented with 1 μg/ml of ponasterone. All cells were cultured at 37° C. in a humidified incubator with a 5% CO2 atmosphere.
(§4) For the cell proliferation assay, cells were dispersed and plated at 40,000 cells/well in 96-well dishes. At various days in culture, the cells were gently washed twice with 100 μl/well of ice-cold blocking buffer (1% radioimmunoassay grade BSA in PBS) and twice with 100 μl/well of ice-cold PBS. The cells were fixed for 10 min in 100% ice-cold methanol (100 μl/well), then allowed to air-dry. The cells were stained with 100μl/well of 0.1% crystal violet in H2O for 10 minutes, then washed gently four times with dd H20 and four times with PBS. The plates were then air-dried completely. The stained cells were then solubilized in 1% sodium deoxycholate, and the plates read at 590 nm in a spectrophotometer. The absorption at 590 nm is proportional to the number of attached cells.

In assay [5] the test system is DLD-1 colon cancer cell line. Put plainly: Cell proliferation assay (crystal violet, 590 nm). The settings on record: 10 and 50 μg/ml, after several days of treatment. The protocol: as §3, §4
The test system of assay [6] is HT-29 colon cancer cell line. Put plainly: Cell proliferation assay (crystal violet, 590 nm). To be noted: 10 and 50 μg/ml, after several days of treatment. On the procedure: as §3, §4

For `CC(C)C[C@@H](C=O)NC(=O)[C@H](CC(C)C)NC(=O)[C@H](CC(C)C)NC(=O)OCc1ccccc1` [MG-132, N-[(phenylmethoxy)carbonyl]-L-leucyl-N-[(1S)-1-formyl-3-methylbutyl]-L-leucinamide] (Cbz-Leu-Leu-Leu-aldehyde), in assay [1], the “induction of apoptosis during readhesion” value is on record as “more potently induced apoptosis”. In addition, in assay [2], the “cleaved PARP in cells that remained adherent” value was “only a small increase in cleaved PARP” and the “cleaved PARP in the non-adherent cells” value is recorded as “large increase in cleaved PARP”. Moreover, in the assay with adherent HT-29 cells (adherent HT-29, doses up to 20 μM (MG-132 20 μM), 24 hours), the “level of apoptosis (annexin V-positive, propidium iodide-negative cells)” value is on record as “relatively greater for MG-132 than BAY 11-7085; also recorded: caused a greater increase in apoptosis”. Besides, in assay [3], the “cleaved PARP in cells that remained adherent” value is “only a small increase in cleaved PARP” and the “cleaved PARP in the nonadherent cells” value is given as “large increase in cleaved PARP”.
Regarding `S=C(S)N1CCCC1` [PDTC, pyrrolidine dithiocarbamate], the “induction of apoptosis during readhesion” value in assay [1] was “caused apoptosis of HT-29 cells during readhesion”.
“cA2: antagonistic and chimeric TNFα monoclonal antibody purchased from the clinical pharmacy; inhibits TNFα binding to TNFα receptors”: the “effect of cA2 pretreatment on BAY 11-7085-induced apoptosis” value in the assay with adherent HT-29 cells (HT-29, 50 μg/ml cA2 for 48 hours, then 20 μM BAY 11-7085 for 24 hours) is given as “did not diminish BAY 11-7085-induced apoptosis”. Besides, the “inhibition of colon cancer cell proliferation” value in assay [4], in assay [5] and in assay [6] was “significant inhibition” throughout.
